Common to all, as to assay: NCI-60 cell line screen, 48 h
Assay [1] has as its system ACHN renal.
The test system of assay [2] is HCT-116 colon.
Assay [3] has as its system HT29 colon.
For assay [4], the system named is K-562 leukemia.
Assay [5] deals with NCI-H23 lung.
The subject of assay [6] is NCI/ADR-RES ovarian.
Assay [7] relates to OVCAR-8 ovarian.
Assay [8] deals with SF-539 CNS.
For assay [9], the system named is SN12C renal.
In assay [10] the test system is UACC-62 melanoma.

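Five concentrations, 48 hours, 96-well plates. The concentration for 50% growth inhibition is given as GI50. The concentration for full growth arrest is given as TGI.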

For `Cc1ccc(S(=O)(=O)SC(C)(C)C)cc1`, the TGI in [1] is 98.1 µM; in [2] it was 31.8 µM; in assay [3], 34.8 µM; in assay [4], 54.4 µM; in [5], 19.5 µM; in assay [6] it was 90.4 µM. The TGI in [7] was 48.3 µM; in assay [8] it was over 77.8 µM; in [9], over 65.2 µM; in [10], 48.6 µM.

In the case of `COc1ccc2c(c1)[nH]c(=O)c1c3cccc(F)c3cn21`, the GI50 in [1] is 0.0576 µM; in [2], 0.0458 µM; in assay [3], 0.0306 µM; in assay [4], 0.024 µM; in assay [5] it was 0.21 µM; in assay [6], 0.038 µM. The GI50 in [7] was 0.129 µM; in assay [8], 0.0522 µM; in assay [9] it was 0.0828 µM; in assay [10] it was 0.0379 µM. In addition, the TGI in assay [1] was over 100 µM; in [2], 13.9 µM; in assay [4] it was 12.3 µM; in assay [5] it was over 52.3 µM; in assay [6] it was 14.3 µM; in assay [7] it was over 73.3 µM. Also, the figures for the TGI in assay [8], in assay [9] and in assay [10] were 0.455 µM, 24.4 µM and over 100 µM, respectively.

Consider `NCCCC[C@@H]1NC(=O)[C@H](CC(=O)O)NC(=O)CNC(=O)[C@H](CCCN=C(N)N)NC(=O)[C@@H](N)CSSC[C@@H](C(=O)O)NC(=O)[C@H](CC(=O)O)NC(=O)[C@@H]2CCCN2C(=O)CNC1=O`, for which the GI50 in [1], in assay [2], in [3], in assay [4], in assay [5] and in assay [6] was over 100 µM in each case. Further, the GI50 in [7], in assay [8], in [9] and in assay [10] was over 100 µM throughout. Also, the TGI in [1], in assay [2], in assay [3], in assay [4], in assay [5] and in assay [6] was over 100 µM throughout. For the same molecule, the TGI in assay [7], in assay [8], in assay [9] and in assay [10] was over 100 µM in each case.

Consider `CC1=C(c2ccccc2)C(O)(c2ccccc2)C(C)C1=O` (stereo not drawn), for which the GI50 in [1] is 35.6 µM; in assay [2], 9.95 µM; in [3], 10.5 µM; in [4] it was 4.71 µM; in assay [5] it was 10.1 µM; in assay [6] it was 2.95 µM. In addition, the GI50 was 48 µM in assay [7], 17.1 µM in [8], 15.4 µM in assay [9] and 9.97 µM in assay [10]. The TGI in assay [1] is over 100 µM; in assay [2], over 100 µM; in [3] it was over 100 µM; in [4] it was over 100 µM; in assay [5], 46.4 µM; in [6] it was 9.94 µM. The TGI in assay [7], in assay [8], in assay [9] and in assay [10] was over 100 µM in each case.

On to `COc1ccc2c(c1OC)CO[C@@H]2[C@H]1c2c(cc3c(c2OC)OCO3)CCN1S(=O)(=O)c1cn(C)cn1`, for which the GI50 in assay [1] is 1.73 µM; in [2] it was 0.494 µM; in [3], 0.614 µM; in assay [4] it was 0.413 µM; in [5] it was 3.43 µM; in [6], 1.97 µM. The GI50 was 3.24 µM in assay [7], 1.57 µM in assay [8], 3.9 µM in [9] and 0.803 µM in assay [10]. The TGI in [1] is over 100 µM; in [2] it was over 100 µM; in [3], over 100 µM; in assay [4], over 100 µM; in assay [5] it was over 100 µM; in assay [6], 8.35 µM. In addition, the TGI was over 100 µM in assay [7], 5.66 µM in assay [8], over 100 µM in assay [9] and over 100 µM in assay [10].

Take `CCc1ccc(CCC(=O)Nc2ncc(Cc3ccc(Cl)cc3)s2)o1`: the GI50 in assay [1] was 0.66 µM; in [2], 0.427 µM; in assay [3], 0.367 µM; in [4] it was 0.365 µM; in [5], 1.53 µM; in assay [6], 0.335 µM. Also, the GI50 is 0.572 µM in assay [7], 0.245 µM in assay [8], 0.753 µM in assay [9] and 0.491 µM in assay [10]. Moreover, the TGI was over 100 µM in assay [1]; over 100 µM in [2]; over 100 µM in assay [3]; over 100 µM in assay [4]; over 100 µM in assay [5]; over 75.3 µM in assay [6]. For the same molecule, the TGI is over 100 µM in [7], 0.727 µM in [8], over 100 µM in assay [9] and over 100 µM in [10].

In the case of `COc1cc(Nc2ncc(-c3ccccc3)o2)cc(OC)c1`, the GI50 in assay [1] is 17.4 µM; in [2] it was over 25 µM; in assay [3], over 25 µM; in assay [4], over 22.5 µM; in assay [5], over 25 µM; in assay [6], over 25 µM. The GI50 in assay [7], in [8], in assay [9] and in assay [10] was over 25 µM throughout. Moreover, the TGI in [1], in assay [2], in assay [3], in assay [4], in [5] and in assay [6] was over 25 µM in each case. In addition, the TGI in [7], in assay [8], in assay [9] and in assay [10] was over 25 µM each time.

Consider `O=C(Nc1ccccc1)Nc1ccc2cc3ccc(NC(=O)Nc4ccccc4)cc3nc2c1`, for which the GI50 is 3.57 µM in [1]; 0.232 µM in assay [2]; 1.89 µM in assay [3]; 0.363 µM in assay [4]; 1.48 µM in assay [5]; 68.7 µM in assay [6]. The GI50 in assay [7] was 1.15 µM; in [8], 1.63 µM; in assay [9], 1.34 µM; in [10], 1.75 µM. Moreover, the TGI in assay [1] is over 100 µM; in assay [2], 0.615 µM; in assay [3], 3.73 µM; in assay [4] it was 1.1 µM; in assay [5], 3.3 µM; in assay [6], over 100 µM. Also, the TGI in assay [7] is 2.78 µM; in [8], 3.01 µM; in [9], 2.72 µM; in assay [10], 3.21 µM.

Turning to `COC(=O)c1ccc(CN2C(=O)C(Cl)=C(Nc3cccc(Cl)c3C)C2=O)cc1`, the GI50 is 33.7 µM in assay [1]; 4.44 µM in assay [2]; 4.85 µM in assay [3]; 4.32 µM in assay [4]; 10.3 µM in [5]; 34.8 µM in [6]. Further, the GI50 was 37.2 µM in assay [7], 23.1 µM in assay [8], 18.2 µM in assay [9] and 13.4 µM in assay [10]. Moreover, the TGI in assay [1] is 90.4 µM; in assay [2], over 100 µM; in assay [3], over 100 µM; in assay [4] it was 21.1 µM; in assay [5], over 100 µM; in [6], over 100 µM. In addition, the TGI in assay [7] was over 100 µM; in [8], 58.7 µM; in assay [9], 55.4 µM; in [10] it was over 100 µM.

For `COc1ccc2c(c1)nc(C(=O)c1ccco1)c(C(F)(F)F)[n+]2[O-]`, the GI50 in [1], in [2], in assay [3], in assay [4], in assay [5] and in assay [6] was over 100 µM in each case. In addition, the GI50 in assay [7], in [8], in assay [9] and in assay [10] was over 100 µM each time. Further, the TGI in assay [1], in assay [2], in assay [3], in assay [4], in assay [5] and in [6] was over 100 µM in each case. In addition, the TGI in assay [7], in [8], in [9] and in [10] was over 100 µM throughout.

For the molecule `COc1ccc2c(c1)c(-c1nc(-c3c[nH]c4ccncc34)cs1)cn2C`, the GI50 in assay [1] was 1.77 µM; in assay [2], 1.69 µM; in assay [3], 1.2 µM; in assay [4] it was 0.716 µM; in [5] it was 1.82 µM; in assay [6] it was 1.76 µM. Moreover, the GI50 was 1.99 µM in [7], 1.65 µM in assay [8], 1.69 µM in assay [9] and 1.82 µM in [10]. For the same molecule, the TGI in assay [1] is 3.17 µM; in assay [2], 3.22 µM; in [3] it was 2.62 µM; in assay [4] it was 2.47 µM; in [5], 3.39 µM; in [6] it was 3.38 µM. Also, the TGI in [7] is 3.82 µM; in assay [8], 3.09 µM; in assay [9], 3.24 µM; in assay [10], 3.35 µM.

For the molecule `CC1CC[P+](c2ccccc2)(c2ccccc2)c2c1ccc1ccccc21` (stereo not drawn), the TGI was over 81.5 µM in [1]; over 39.5 µM in assay [2]; 13.9 µM in [3]; 17.8 µM in assay [4]; 9.78 µM in assay [5]; over 100 µM in assay [6]. Also, the TGI in assay [7] turned out to be 21.1 µM; in [8], 35.8 µM; in [9], 37.1 µM; in [10], 20.1 µM.

With `CCC(C)[C@H](NC(=O)Nc1cc(C(F)(F)F)cc(C(F)(F)F)c1)C(=O)N[C@@H](Cc1cn(C)cn1)C(=O)OC` (stereo partly drawn), the GI50 is 1.4 µM in assay [1]; 0.606 µM in [2]; 0.711 µM in [3]; 1.06 µM in assay [4]; 6.15 µM in assay [5]; 3.78 µM in assay [6]. The GI50 was 0.634 µM in assay [7], 1.32 µM in assay [8], 0.544 µM in assay [9] and 1.11 µM in assay [10]. Also, the TGI came to 2.01 µM in [1]; 1.21 µM in assay [2]; 1.4 µM in assay [3]; 2.44 µM in assay [4]; 5.57 µM in assay [6]; 1.33 µM in [7]. In addition, the TGI in assay [8] was found to be 1.83 µM; in assay [9], 1.05 µM; in assay [10], 1.86 µM.

On to `CCOC(=O)c1cc2c(cc1Cl)SC(=Nc1ccccc1)N(S(=O)(=O)c1ccc(Cl)cc1)S2(=O)=O`, for which the GI50 in assay [1] was 14.5 µM; in assay [2] it was 6.32 µM; in assay [3], 19.4 µM; in assay [4], 15 µM; in assay [5], 13.5 µM; in [6] it was 18.3 µM. In addition, the GI50 was 22.1 µM in assay [7], 18.3 µM in assay [8], 15.4 µM in assay [9] and 10.2 µM in assay [10]. The TGI in [1] was 28.8 µM; in assay [2], 21.9 µM; in assay [3] it was over 100 µM; in assay [4], 38.7 µM; in assay [5], 29.8 µM; in [6] it was 36.5 µM. Further, the TGI in assay [7] worked out at 59.6 µM; in assay [8], 34.8 µM; in assay [9] it was 33.2 µM; in assay [10] it was 23.7 µM.

Take `CCN(Cc1ccccc1)C1CCN(Cc2cc(Br)ccc2O)CC1`: the GI50 in [1] was 79.7 µM; in assay [2] it was 23.2 µM; in [3], 20.1 µM; in [4], 26.6 µM; in assay [5] it was 34.9 µM; in assay [6] it was 31.9 µM. Further, the GI50 in assay [7] is 76.6 µM; in assay [8], 36.7 µM; in [9], 42.9 µM; in [10] it was 26.6 µM. Moreover, the TGI in assay [1], in assay [2], in assay [3], in [4], in assay [5] and in assay [6] was over 100 µM throughout. The TGI in [7], in [8], in assay [9] and in assay [10] was over 100 µM in each case.

Turning to `OC(COC(c1ccccc1)(c1ccccc1)c1ccccc1)C(O)CC1SCCS1` (stereo not drawn), the TGI in [1] was 38.3 µM; in [2], 37.1 µM; in [3] it was 34.3 µM; in [4], over 100 µM; in [5] it was 40 µM; in [6] it was 52.9 µM. Besides, the TGI in assay [7] worked out at 57.7 µM; in assay [8] it was 43.8 µM; in assay [9], 45.2 µM; in assay [10], 36 µM.

(Values after PubChem BioAssay (NCI).)
